Read-outs that look alike come from different tables or passages of the source.

Here are results for three compounds from patent publication US7635779B2, “Oxy substituted flavones as antihyperglycemic and antidyslipidemic agents” (Council of Scientific & Industrial Research, priority 2004, dated 2009).

For series [1], the system named is triton WR-1339 induced hyperlipidemic rats. The series is described as follows: Triton model, antidyslipidemic activity. The series is classed as in vivo, rat. Conditions: 100 mg/kg oral, plasma after 18 h; for inhibition in vivo at 100 mg/kg: Rattus norvegicus. The method, then:
Male Charles foster rats weighing 200-225 g were divided into control, hyperlipidemic and hyperlipidemic plus drug treated groups containing six animals in each group. Hyperlipidemia was induced by administration of triton WR-1339 (200 mg/kg i.p.). All animals were maintained on a special pellet diet and water ad libitum. Compounds and standard drug were macerated with 0.2% aqueous gum acacia suspension. The suspension was fed orally at the dose of 100 mg/kg simultaneously with triton in drug treated group. The animals of control group received the same amount of gum acacia by similar route of administration. At the end of the experiment, after 18 h, blood was withdrawn from retro orbital plexus and plasma was used for the assay of total cholesterol, phospholipid and triglycerides.
Cholesterol was estimated using the kit provided by Roche Diagnostics. Cholesterol esters are enzymatically hydrolyzed by cholesterol esterase (CE) to cholesterol and free fatty acids. Free cholesterol, including that originally present, is then oxidized by cholesterol oxidase (CO) to cholest-4-en-3-one and hydrogen peroxide. The hydrogen peroxide combines with hydroxy benzoic acid (HBA) and 4-aminoantipyrine (4AAA) in the presence of peroxidase (POD) to form a chromophore (quinoneimine dye), which may be quantitated at 500-505 nm. The intensity of red colour formed is directly proportional to the concentration of total cholesterol in the specimen and measured spectrophotometrically (Searcy, C. L. Diagnostic Biochemistry, 1969, McGraw Hill, New York; Ellefson, R. D.; Caraway, W. T. Fundamentals of clinical chemistry, 1976, Ed Tietz N W, 506-515.)
Triglycerides were estimated using the kit provided by Roche Diagnostics. Lipoprotein lipase hydrolyses triglycerides to yield glycerol and fatty acids. Glycerol kinase converts glycerol to glycerol-3-phosphate, which is oxidized by glycerol phosphate oxidase to dihydroxy acetone phosphate and hydrogen peroxide. In the presence of peroxidase, hydrogen peroxide oxidatively couples with 4-aminoantipyrine and 4-chloro phenol to produce red quinonimine dye. The intensity of red colour formed is directly proportional to the concentration of triglycerides in the specimen and is measured by photometrically (Wahlefeld, A. W.; Bergmeyer, H. U. Ed. Methods of enzymatic analysis, 2nd English edition, New York, N.Y., Academic press inc, 1831-1840.).
Serum (0.2 mL) and perchloric acid (1.0 mL) was digested at 180° C. for 1-1.5 h till the solution became colorless. The liberated inorganic phosphate (Pi) was measured by the method of Fiske and Subbarow (Fiske, C. H.; Subbarow, V. J. Biol. Chem. 1925, 66, 375.). 1 mL of 2.5% ammonium molybdate (prepared in 5 N sulphuric acid) and 0.5 mL reducing agent (4-amino naphthol sulphonic acid, 0.2%), sodium metabisulphite (2.4% w/v in distilled water) was added to the above tubes and mixed well. The reaction mixture was […] with 2.5 mL of triple distilled water and kept at 60° C. in water bath for 20 min. For standard, an appropriate amount of potassium dihydrogen phosphate dissolved in triple distilled water containing 2-10 μg phosphorous (Pi) was run simultaneously with the experiment tubes. The optical density of the blue colour was recorded at 620 nm against reagent blank. The values of Pi were converted into phospholipid by multiplying with 25 (a constant calibrated from Pi value of lecithin).

Series [2] has as its system Swiss mice. The series is described as follows: Gross behaviour: motor responses (SMA, gait, posture). It counts as in vivo, mouse. Also on record: key to SMA Score: scale 0-9; control group SMA = 4. As to conditions: for Effect on motor responses: 100 mg/kg; for SMA Score: 100 mg/kg p.o., control score 4. As to the method: 34 and 49 (100 mg/kg, p.o.) was administered in forenoon.
The gross behavioral parameters were observed as follows (based on Irwin protocol):
• i). Spontaneous motor activity [SMA]: Scored on a scale of 0-9 in which SMA in control group was assigned score 4. • ii). Posture/Position: Normal upright posture (+: present or −: absent) • iii). Gait: The mouse is allowed to move on the edge of the cage for 1 min and straight movements without fall or staggering is considered as normal. The gait is recorded as normal or abnormal; if abnormal description is provided. • iv). Ataxia: Any in-coordination in movements occurring in absence of involuntary movements. (+: present or −: absent) • v). Tremor: Involuntary movements (jerking of entire body or limbs) due to alternating contraction of muscles. (+: present or −: absent) • vi). Convulsions: Alternate contraction (flexion) and extension [clonic], or sustained extension [tonic] of limbs resulting into loss of upright posture (+: present or −: absent). • vii). Straub's tail: A sustained (>30 sec) raising of tail (making an angle >60° with the body) (+: present or −: absent) • viii). Catalepsy: A condition in which body or limbs remain passively in any position in which they are placed. It is tested by the placing forepaws on a metallic rod placed at height of 6 cm and if forepaws are not withdrawn within 10 sec catalepsy is considered to be positive (+: present or −: absent). • ix). Abnormal (Bizarre) behaviour: Stereotypy, head shaking, head searching, upright walking, and circling (+: present or −: absent). Results

Series [3] relates to Swiss mice. The series is described as follows: Gross behaviour: sensory responses (reflexes, hot plate nociceptive response). The series is classed as in vivo, mouse. As to conditions: 100 mg/kg p.o.; for Nociceptive reaction time MEAN ± SE: hot plate 55° C. As to the method: • i). Reflexes: Pinna, corneal and righting reflexes were tested [Normal (control), sluggish or absent] • ii). Nociceptive Response: Reaction time to nociceptive response was observed by hot plate analgesia meter (Columbus Instruments,USA). The cut-off period for thermal nociception (55° C.) to mice was 15 sec. Results • i). Reflexes: Corneal, pinna and righting reflexes were intact in 34 and 49 treated mice. • ii).

Series [4] deals with Swiss mice. The series is described as follows: Barbiturate induced hypnosis (sleeping time). The series is classed as in vivo, mouse. Conditions: for Change in barbiturate induced hypnosis: 100 mg/kg p.o.; for Sleep-duration (MEAN ± SE): 100 mg/kg p.o. 30 min prior to Pentobarbitone 45 mg/kg i.p. The method, then:
Sleeping time is calculated by the duration between loss and regain of righting reflex following administration of Pentobarbitone (45 mg/kg, i.p.). 34 and 49 in the dose 100 mg/kg, p.o. was administered 30 min prior to Pentobarbitone.

Setting [5] is: phospholipid, read-out: % Fall in lipid levels (Triton model) PL.
[6] abbreviates: total cholesterol, read-out: % Fall in lipid levels (Triton model) TC.
[7] abbreviates: triglycerides, read-out: % Fall in lipid levels (Triton model) TG.

Consider `CC(C)(C)NCC(O)COc1ccc2c(=O)cc(-c3cc(OCc4ccccc4)cc(OCc4ccccc4)c3)oc2c1` (stereo not drawn) [Compound 34, 7-(3-tert-Butylamino-2-hydroxy-propoxy)-3′,5′-dibenzyloxy-flavone], for which the inhibition in vivo at 100 mg/kg in series [1] (setting [5]) is 18%; in series [1] (setting [6]) it was 21%; in series [1] (setting [7]), 9%. Besides, in series [2], the “Effect on motor responses” value is on record as “did not show any significant effect”. In addition, the “SMA Score” value in series [2] (0 min), in series [2] (30 min), in series [2] (60 min), in series [2] (90 min), in series [2] (120 min) and in series [2] (150 min) was 4 in each case. Moreover, in series [2] (180 min), the “SMA Score” value stood at 4. Besides, the “Corneal, pinna and righting reflexes” value in series [3] is recorded as “intact”. Besides, in series [3], the “Effect on nociceptive reaction time as compared to control” value is reported as “no significant effect”. The Sensory responses entry in series [3] was “not affected”. Moreover, the “Nociceptive reaction time MEAN ± SE” value amounted to 4.84 ± 0.3 s in series [3] (30 min); 4.30 ± 0.2 s in series [3] (60 min); 3.52 ± 0.1 s in series [3] (90 min); 3.08 ± 0.2 s in series [3] (120 min); 3.52 ± 0.2 s in series [3] (Pre-tt (0)). In addition, the “Change in barbiturate induced hypnosis” value in series [4] was “did not show any significant change”. Besides, in series [4], the “Sleep-duration (MEAN ± SE)” value worked out at 122.5 ± 16.7 min.
As for `COc1cc(-c2cc(=O)c3ccc(OCCCOc4ccc(C=C5SC(=O)NC5=O)cc4)cc3o2)cc(OC)c1OC` [Compound 65, 7-{3-[4-(thiazolidin-2,4-dione-5-ylidinemethyl)-phenoxy]-propoxy}-3′,4′,5′-trimethoxy-flavone], the “% Fall in lipid levels (Triton model) PL” value in series [1] (phospholipid) is 6%. In addition, the “% Fall in lipid levels (Triton model) TC” value in series [1] (total cholesterol) is 20%. Besides, in series [1] (triglycerides), the “% Fall in lipid levels (Triton model) TG” value worked out at 3%.
With `CC(C)NCC(O)COc1ccc2c(=O)cc(-c3cc(O)cc(O)c3)oc2c1` (stereo not drawn) [Compound 49, 3′,5′-Dihydroxy-7-(2-hydroxy-3-iso-propylamino-propoxy)-flavone], the inhibition in vivo at 100 mg/kg was determined as 28% in series [1] (setting [5]), 32% in series [1] (setting [6]) and 32% in series [1] (setting [7]). For the same compound, in series [2], the “Effect on motor responses” value was “did not show any significant effect”. For the same compound, the “SMA Score” value in series [2] (0 min), in series [2] (30 min), in series [2] (60 min), in series [2] (90 min), in series [2] (120 min) and in series [2] (150 min) was 4 throughout. For the same compound, the “SMA Score” value in series [2] (180 min) is on record as 4. Besides, the “Corneal, pinna and righting reflexes” value in series [3] is listed as “intact”. Also, the “Effect on nociceptive reaction time as compared to control” value in series [3] was “no significant effect”. The Sensory responses entry in series [3] was “not affected”. Moreover, the “Nociceptive reaction time MEAN ± SE” value came to 4.66 ± 0.6 s in series [3] (30 min); 4.10 ± 0.2 s in series [3] (60 min); 3.66 ± 0.3 s in series [3] (90 min); 3.45 ± 0.1 s in series [3] (120 min); 4.61 ± 0.2 s in series [3] (Pre-tt (0)). For the same compound, the “Change in barbiturate induced hypnosis” value in series [4] is “did not show any significant change”. The “Sleep-duration (MEAN ± SE)” value in series [4] is on record as 103.4 ± 15.27 min.
